# Measured values published in US11560385B2, “Proteasome activity enhancing compounds” (Proteostasis Therapeutics, Inc., priority 2018, dated 2023).
# Biological target: USP14 (Homo sapiens (Human), UniProt P54578)
# Experiment: Usp14 inhibition assay (Example 57B, B-series compounds)
# Assay type: biochemical
# Settings: IC50 class; average value from a minimum of two experimental determinations
# Text: Example 57B: Usp14 Inhibition Assay
# The IC50 values in the Table below represent the average value from a minimum of two experimental determinations.
# Sequence of USP14 (P54578 whole entry, looked up): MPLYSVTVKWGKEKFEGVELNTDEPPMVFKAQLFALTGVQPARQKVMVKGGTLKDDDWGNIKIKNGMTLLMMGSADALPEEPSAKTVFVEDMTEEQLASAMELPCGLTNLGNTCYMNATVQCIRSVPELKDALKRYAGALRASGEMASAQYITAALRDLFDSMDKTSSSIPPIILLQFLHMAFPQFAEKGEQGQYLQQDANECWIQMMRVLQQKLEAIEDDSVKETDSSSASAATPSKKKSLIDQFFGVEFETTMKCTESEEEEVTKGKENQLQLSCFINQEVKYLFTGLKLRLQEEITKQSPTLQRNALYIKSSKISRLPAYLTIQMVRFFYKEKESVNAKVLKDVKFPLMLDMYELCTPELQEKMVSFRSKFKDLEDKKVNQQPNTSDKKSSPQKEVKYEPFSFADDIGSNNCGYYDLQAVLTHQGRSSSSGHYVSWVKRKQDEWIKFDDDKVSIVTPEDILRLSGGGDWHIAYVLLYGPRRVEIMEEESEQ
row,Compound,IC50 [nM]
1,"Cc1cc(C(=O)CN2[C@@H]3CC[C@H]2[C@@H](C)C3)c(C)n1-c1ccc(C#N)cc1 (racemic) [Example 100B, (±)-4-(2,5-Dimethyl-3-(2-((1S,2S,4R)-2-methyl-7-azabicyclo[2.2.1]heptan-7-yl)acetyl)-1H-pyrrol-1-yl)benzonitrile]",> 500
2,"Cc1c(C(=O)CN2[C@@H]3CC[C@@H]2[C@@H](O)C3)cc(CC2CCOCC2)n1-c1ccc(C#N)cc1 (racemic) [Example 44B, (±)-4-(3-(2-((1R,2S,4R)-2-Hydroxy-7-azabicyclo[2.2.1]heptan-7-yl)acetyl)-2-methyl-5-((tetrahydro-2H-pyran-4-yl)methyl)-1H-pyrrol-1-yl)benzonitrile]",< 50
3,"Cc1c(C(=O)CN2C3CCC2[C@@H](O)C3)cc(CC2CC(F)(F)C2)n1-c1ccc(C#N)cc1 (mixture of isomers) [Example 135B, (±)-4-(5-((3,3-Difluorocyclobutyl)methyl)-3-(2-((2R)-2-hydroxy-7-azabicyclo[2.2.1]heptan-7-yl)acetyl)-2-methyl-1H-pyrrol-1-yl)benzonitrile]",< 50
4,"Cc1cc(C(=O)CN2C3CC4CC2CC(C3)O4)c(C)n1-c1ccc(C#N)cc1 [Example 84B, 4-(3-(2-((1r,3r)-2-Oxa-6-azaadamantan-6-yl)acetyl)-2,5-dimethyl-1H-pyrrol-1-yl)benzonitrile]",50 to 500
5,"Cc1c(C(=O)CN2C3CCC2[C@@H](O)C3)c(Cl)c(Cl)n1-c1ccc(C#N)cc1 (mixture of isomers) [Example 97B, (±)-4-(2,3-Dichloro-4-(2-((2R)-2-hydroxy-7-azabicyclo[2.2.1]heptan-7-yl)acetyl)-5-methyl-1H-pyrrol-1-yl)benzonitrile]",50 to 500
6,"Cc1c(C(=O)CN2C3CCC2[C@@H](O)C3)cc(C(C)(C)C)n1-c1ccc(C#N)cc1 (mixture of isomers) [Example 113B, (±)-4-(5-(tert-Butyl)-3-(2-((2R)-2-hydroxy-7-azabicyclo[2.2.1]heptan-7-yl)acetyl)-2-methyl-1H-pyrrol-1-yl)benzonitrile]",50 to 500
7,"Cc1c(C(=O)CN2C3CCC2[C@@H](O)C3)cc(C[C@H]2C[C@H](C#N)C2)n1-c1ccc(C#N)cc1 (mixture of isomers) [Example 45B, (±)-4-(5-(((1r,3R)-3-Cyanocyclobutyl)methyl)-3-(2-((2R)-2-hydroxy-7-azabicyclo[2.2.1]heptan-7-yl)acetyl)-2-methyl-1H-pyrrol-1-yl)benzonitrile]",< 50
8,"Cc1c(C(=O)CN2C3CCC2[C@@H](O)C3)c(Cl)c(/C=C/CC(C)(C)C#N)n1-c1ccc(C#N)cc1 (mixture of isomers) [Example 46B, (±)-4-(3-Chloro-2-((E)-4-cyano-4-methylpent-1-en-1-yl)-4-(2-((2R)-2-hydroxy-7-azabicyclo[2.2.1]heptan-7-yl)acetyl)-5-methyl-1H-pyrrol-1-yl)benzonitrile]",50 to 500
9,"Cc1c(C(=O)CN2C3CCC2[C@@H](O)C3)cc(CC[Si](C)(C)C)n1-c1ccc(C#N)cc1 (mixture of isomers) [Example 50B, (±)-4-(3-(2-((2R)-2-Hydroxy-7-azabicyclo[2.2.1]heptan-7-yl)acetyl)-2-methyl-5-(2-(trimethylsilyl)ethyl)-1H-pyrrol-1-yl)benzonitrile]",50 to 500
10,"Cc1c(C(=O)CN2C3CCC2[C@@H](O)C3)cc(C2CCC2)n1-c1ccc(C#N)cc1 (mixture of isomers) [Example 108B, (±)-4-(5-Cyclobutyl-3-(2-((2R)-2-hydroxy-7-azabicyclo[2.2.1]heptan-7-yl)acetyl)-2-methyl-1H-pyrrol-1-yl)benzonitrile]",< 50
11,"Cc1c(C(=O)CN2C3CCC2[C@@H](O)C3)cc(CCC2CCOCC2)n1-c1ccc(C#N)cc1 (mixture of isomers) [Example 9B, (±)-4-(3-(2-((2R)-2-Hydroxy-7-azabicyclo[2.2.1]heptan-7-yl)acetyl)-2-methyl-5-(2-(tetrahydro-2H-pyran-4-yl)ethyl)-1H-pyrrol-1-yl)benzonitrile]",< 50
12,Cc1c(C(=O)CN2C3CCC2CC3)cc(/C=C\CCS(C)(=O)=O)n1-c1ccc(C#N)cc1 [Example 26B],< 50
13,"Cc1nc(Cc2cc(C(=O)CN3C4CCC3[C@@H](O)C4)c(C)n2-c2ccc(C#N)cc2)cs1 (mixture of isomers) [Example 41B, (±)-4-(3-(2-((2R)-2-Hydroxy-7-azabicyclo[2.2.1]heptan-7-yl)acetyl)-2-methyl-5-((2-methylthiazol-4-yl)methyl)-1H-pyrrol-1-yl)benzonitrile]",< 50
14,"Cc1c(C(=O)CN2[C@@H]3CC[C@H]2[C@@H](O)C3)cc(CCC2(C)COC2)n1-c1ccc(C#N)cc1 (racemic) [Example 55B, (±)-4-(3-(2-((1R,2R,4S)-2-Hydroxy-7-azabicyclo[2.2.1]heptan-7-yl)acetyl)-2-methyl-5-(2-(3-methyloxetan-3-yl)ethyl)-1H-pyrrol-1-yl)benzonitrile]",< 50
15,"Cc1c(C(=O)CN2[C@@H]3CC[C@H]2[C@@H](O)C3)cc(CCCCC#N)n1-c1ccc(Cl)cc1 (racemic) [Example 29B, (±)-5-(1-(4-Chlorophenyl)-4-(2-((1R,2R,4S)-2-hydroxy-7-azabicyclo[2.2.1]heptan-7-yl)acetyl)-5-methyl-1H-pyrrol-2-yl)pentanenitrile]",< 50
16,"Cc1cc(C(=O)CN2[C@@H]3CC[C@@H]2CC(O)(C(F)(F)F)C3)c(C)n1-c1ccc(C#N)cc1 (stereo partly drawn) [Example 75B, 4-(3-(2-((1R,3s,5S)-3-Hydroxy-3-(trifluoromethyl)-8-azabicyclo[3.2.1]octan-8-yl)acetyl)-2,5-dimethyl-1H-pyrrol-1-yl)benzonitrile]",50 to 500
17,"COCCCCc1cc(C(=O)CN2[C@@H]3CC[C@H]2[C@@H](O)C3)c(C)n1-c1ccc(C#N)cc1 (stereo in doubt) [Example 12B, (rel)-4-(3-(2-((1R,2R,4S)-2-Hydroxy-7-azabicyclo[2.2.1]heptan-7-yl)acetyl)-5-(4-methoxybutyl)-2-methyl-1H-pyrrol-1-yl)benzonitrile]",< 50
18,"Cc1c(C(=O)CN2C3CCC2[C@@H](O)C3)c(C(F)(F)F)c(C)n1-c1ccc(C#N)cc1 (mixture of isomers) [Example 79B, (±)-4-(3-(2-((2R)-2-Hydroxy-7-azabicyclo[2.2.1]heptan-7-yl)acetyl)-2,5-dimethyl-4-(trifluoromethyl)-1H-pyrrol-1-yl)benzonitrile]",> 500
19,"Cc1c(C(=O)CN2[C@@H]3CC[C@H]2[C@@H](O)C3)cc(/C=C/Cn2cccn2)n1-c1ccc(C#N)cc1 (racemic) [Example 27B, (±)-4-(5-((E)-3-(1H-Pyrazol-1-yl)prop-1-en-1-yl)-3-(2-((1S,2S,4R)-2-hydroxy-7-azabicyclo[2.2.1]heptan-7-yl)acetyl)-2-methyl-1H-pyrrol-1-yl)benzonitrile]",< 50
20,"Cc1c(C(=O)CN2C3CCC2CC3)cc(CCCCS(C)(=O)=O)n1-c1ccc(C#N)cc1 [Example 30B, 4-(3-(2-(7-Azabicyclo[2.2.1]heptan-7-yl)acetyl)-2-methyl-5-(4-(methylsulfonyl)butyl)-1H-pyrrol-1-yl)benzonitrile]",< 50
21,"Cc1c(Cl)c(C(=O)CN2C3CCC2[C@@H](O)C3)c(C)n1-c1ccc(C#N)cc1 (mixture of isomers) [Example 77B, (±)-4-(3-Chloro-4-(2-((2R)-2-hydroxy-7-azabicyclo[2.2.1]heptan-7-yl)acetyl)-2,5-dimethyl-1H-pyrrol-1-yl)benzonitrile]",50 to 500
22,"Cc1c(C(=O)CN2C3CCC2[C@@H](O)C3)cc(CCC2COC2)n1-c1ccc(C#N)cc1 (mixture of isomers) [Example 43B, (±)-4-(3-(2-((2R)-2-Hydroxy-7-azabicyclo[2.2.1]heptan-7-yl)acetyl)-2-methyl-5-(2-(oxetan-3-yl)ethyl)-1H-pyrrol-1-yl)benzonitrile]",< 50
23,"Cc1cc(C(=O)CN2C3CCC2(C)CC3)c(C)n1-c1ccc(C#N)cc1 [Example 125B, 4-(2,5-Dimethyl-3-(2-(1-methyl-7-azabicyclo[2.2.1]heptan-7-yl)acetyl)-1H-pyrrol-1-yl)benzonitrile]",50 to 500
24,"Cc1cc(C(=O)CN2[C@@H]3CC[C@H]2[C@@H](C(F)(F)F)C3)c(C)n1-c1ccc(C#N)cc1 (racemic) [Example 102B, (±)-4-(2,5-Dimethyl-3-(2-((1R,2R,4S)-2-(trifluoromethyl)-7-azabicyclo[2.2.1]heptan-7-yl)acetyl)-1H-pyrrol-1-yl)benzonitrile]",> 500
25,"Cc1cc(C(=O)CN2C3CCCC2CC(O)C3)c(C)n1-c1ccc(C#N)cc1 [Example 85B, 4-(3-(2-((1R,3s,5S)-3-Hydroxy-9-azabicyclo[3.3.1]nonan-9-yl)acetyl)-2,5-dimethyl-1H-pyrrol-1-yl)benzonitrile]",50 to 500
26,"Cc1c(C#N)c(C(=O)CN2C3CCC2[C@@H](O)C3)c(C)n1-c1ccc(C#N)cc1 (mixture of isomers) [Example 95B, (±)-1-(4-Cyanophenyl)-4-(2-((2R)-2-hydroxy-7-azabicyclo[2.2.1]heptan-7-yl)acetyl)-2,5-dimethyl-1H-pyrrole-3-carbonitrile]",> 500
27,"Cc1cc(C(=O)CN2C3CCC2(C(C)O)CC3)c(C)n1-c1ccc(C#N)cc1 (racemic) [Example 143B, (±)-4-(3-(2-(1-((R)-1-Hydroxyethyl)-7-azabicyclo[2.2.1]heptan-7-yl)acetyl)-2,5-dimethyl-1H-pyrrol-1-yl)benzonitrile]",50 to 500
28,"Cc1cc(C(=O)CN2[C@@H]3CC[C@@H]2CC(C)(O)C3)c(C)n1-c1ccc(C#N)cc1 (stereo partly drawn) [Example 68B, 4-(3-(2-((1R,3r,5S)-3-Hydroxy-3-methyl-8-azabicyclo[3.2.1]octan-8-yl)acetyl)-2,5-dimethyl-1H-pyrrol-1-yl)benzonitrile]",50 to 500
29,"Cc1cc(C(=O)CN2C3CCC2[C@@H](CO)C3)c(C)n1-c1ccc(C#N)cc1 (mixture of isomers) [Example 130B, (±)-4-(3-(2-((2R)-2-(Hydroxymethyl)-7-azabicyclo[2.2.1]heptan-7-yl)acetyl)-2,5-dimethyl-1H-pyrrol-1-yl)benzonitrile]",50 to 500
30,"Cc1c(F)c(C(=O)CN2C3CC4CC2CC(C3)O4)c(C)n1-c1ccc(C#N)c(F)c1 (racemic) [Example 116B, (±)-4-(3-(2-((1r,3r)-2-Oxa-6-azaadamantan-6-yl)acetyl)-4-fluoro-2,5-dimethyl-1H-pyrrol-1-yl)-2-fluorobenzonitrile]",50 to 500
